Reference: patent publication US6608082B1, “Treatment of erectile dysfunction using isoquinoline compound melanocortin receptor ligands” (Lion Bioscience AG, priority 1998, dated 2003)
Like-named read-outs stand apart in the source and are kept apart here. Values belong to the molecule of their own block, whether it stands above or below them.

Experiments:
MCR-4 = biological target: T1, MCR-4 (Homo sapiens, UniProt P32245); assay: Melanocortin receptor binding assay, competition with 125I-HP 467, HEK 293 cells expressing hMCR-4; details: for IC50: read-out: MC-4 IC50
T1 construct: expressed in transfected cells; host or cells: HEK 293
T1 sequence (P32245 whole entry): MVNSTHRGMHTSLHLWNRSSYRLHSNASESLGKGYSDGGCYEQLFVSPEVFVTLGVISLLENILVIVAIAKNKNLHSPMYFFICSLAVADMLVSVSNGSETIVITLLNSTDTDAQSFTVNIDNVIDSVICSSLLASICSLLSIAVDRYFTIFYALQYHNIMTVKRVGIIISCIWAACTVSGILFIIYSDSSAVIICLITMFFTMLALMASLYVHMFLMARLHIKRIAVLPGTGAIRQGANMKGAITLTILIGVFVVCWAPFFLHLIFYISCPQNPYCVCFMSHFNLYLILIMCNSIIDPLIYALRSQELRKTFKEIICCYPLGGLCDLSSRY
Procedure, shortened: (§1)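 Test compounds compete on intact HEK 293 cells carrying hMCR-1 (2×10^4 per tube) or hMCR-4 (4×10^3 per tube), suspended in PBS, 10% calf serum, 1 mM CaCl2.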

MCR-1 = biological target: T2, MCR-1 (Homo sapiens, UniProt Q01726); assay: Melanocortin receptor binding assay, competition with 125I-HP 467, HEK 293 cells expressing hMCR-1; details: for IC50: read-out: MC-1 IC50
T2 construct: expressed in transfected cells; host or cells: HEK 293
T2 sequence (Q01726 whole entry): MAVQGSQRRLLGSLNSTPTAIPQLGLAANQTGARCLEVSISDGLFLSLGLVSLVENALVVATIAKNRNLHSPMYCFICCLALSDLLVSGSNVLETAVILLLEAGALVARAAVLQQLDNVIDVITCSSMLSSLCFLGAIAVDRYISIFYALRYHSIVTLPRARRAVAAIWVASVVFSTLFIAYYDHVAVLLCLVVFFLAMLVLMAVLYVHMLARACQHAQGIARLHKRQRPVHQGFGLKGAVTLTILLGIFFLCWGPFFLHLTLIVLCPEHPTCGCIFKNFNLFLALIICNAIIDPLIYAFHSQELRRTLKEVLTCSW
Procedure, shortened: as §1

[1] = inhibition of binding of 125I-HP 467, HEK 293 cells expressing MCR-4, TRG 2414 library
[2] = inhibition of binding of 125I-HP 467, HEK 293 cells expressing MCR-1, TRG 2414 library
[3] = TRG 2414 library, inhibition of binding of 125I-HP 467, HEK 293 cells expressing MCR-4
[4] = TRG 2414 library, inhibition of binding of 125I-HP 467, HEK 293 cells expressing MCR-1
[5] = inhibition of binding of 125I-HP 467, HEK 293 cells expressing MCR-4
[6] = inhibition of binding of 125I-HP 467, HEK 293 cells expressing MCR-1
[7] = TRG 2406 and TRG 2407 libraries, inhibition of binding of 125I-HP 467

IC50 (MCR-4; [1]): 4.06 µM | IC50 (MCR-1; [2]): 3.52 µM
SMILES: COc1ccccc1CCNCC1c2ccccc2CN(CCCCC(CN)NCCc2ccccc2)C1c1cccc(Oc2ccccc2)c1 (stereo not drawn) [TRG 2414-90]

IC50 (MCR-4; [3]): 3.42 µM | IC50 (MCR-1; [4]): 5.17 µM
SMILES: COc1ccc(CCNCC2c3ccccc3CN(CCCCC(CN)NCCc3ccccc3)C2c2ccccc2Br)cc1 (stereo not drawn) [Cmpd 226]

IC50 (MCR-4; [3]): 6.2 µM | IC50 (MCR-1; [4]): 7.04 µM
SMILES: CCOc1ccccc1CNCC1c2ccccc2CN(CCCCC(CN)NCCc2ccccc2)C1c1ccccc1Br (stereo not drawn) [Cmpd 206]

IC50 (MCR-4; [1]): 5.6 µM | IC50 (MCR-1; [2]): 3.71 µM
SMILES: NCC(CCCCN1Cc2ccccc2C(CNC2CCCCCC2)C1c1cccc(Oc2ccccc2)c1)NCc1ccccc1 (stereo not drawn) [TRG 2414-115]

IC50 (MCR-4; competition with 125I-HP 467, HEK 293 cells expressing MCR-4): 27.5 µM | IC50 (MCR-1; competition with 125I-HP 467, HEK 293 cells expressing MCR-1): 2.72 µM
SMILES: CNC(CN)CCCCN1Cc2ccccc2C(CNC2CCCCC2)C1c1ccc(NCCOC)cc1 (stereo not drawn) [TRG 2409-17]

IC50 (MCR-4; [1]): 2.6 µM | IC50 (MCR-1; [2]): 2.65 µM
SMILES: COc1ccc(CCNCC2c3ccccc3CN(CCCCC(CN)NCc3ccccc3)C2c2ccc(Cl)cc2Cl)cc1 (stereo not drawn) [TRG 2414-27]

IC50 (MCR-4; [5]): 4.32 µM | IC50 (MCR-1; [6]): 0.093 µM
SMILES: CCNc1ccc(C2C(CN)c3ccccc3CN2CCCC(CN)NCCCCNC(C)(C)C)cc1 (stereo not drawn) [TRG 2419-10]

IC50 (MCR-4; [1]): 6.14 µM | IC50 (MCR-1; [2]): 3.19 µM
SMILES: COc1ccc(CNCC2c3ccccc3CN(CCCCC(CN)NCc3ccccc3)C2c2ccc(Cl)cc2Cl)cc1 (stereo not drawn) [TRG 2414-23]

IC50 (MCR-4; [5]): 1.95 µM | IC50 (MCR-1; [6]): 3 µM
SMILES: NCC(CCCN1Cc2ccccc2C(CN)C1c1ccc(O)cc1)NCCC1CCCCC1 (stereo not drawn) [TRG 2415-9]

IC50 (MCR-4; [1]): 44.4 µM | IC50 (MCR-1; [2]): 21.8 µM
SMILES: CCCOc1ccc(C2C(CNCc3ccccc3OCC)c3ccccc3CN2CCCCC(CN)NCC(C)c2ccc(CC(C)C)cc2)cc1 (stereo not drawn) [TRG 2414-168]

SMILES: CCNc1ccc(C2C(CN)c3ccccc3CN2CCCC(CN)NCCCCN(CC)CC)cc1 (stereo not drawn) [TRG 2419-7]
IC50 (MCR-4; [5]): 10.1 µM | IC50 (MCR-1; [6]): 0.141 µM

SMILES: COc1cccc(CCNCC2c3ccccc3CN(CCCCC(CN)NCc3ccc(Br)cc3)C2c2cc(C(F)(F)F)cc(C(F)(F)F)c2)c1 (stereo not drawn) [TRG 2421-38]
IC50 (MCR-4; [5]): 1.34 µM | IC50 (MCR-1; [6]): 7.47 µM

MC-4 IC50 (MCR-4; [1]): no fit | IC50 (MCR-1; [2]): 36.5 µM
SMILES: CCOc1ccccc1CNCC1c2ccccc2CN(CCCCC(CN)NCC(C)c2ccc(CC(C)C)cc2)C1c1cccc(Oc2ccccc2)c1 (stereo not drawn) [TRG 2414-88]

IC50 (MCR-4; [1]): 7.48 µM | IC50 (MCR-1; [2]): 8.13 µM
SMILES: COc1ccc(CNCC2c3ccccc3CN(CCCCC(CN)NCc3ccccc3)C2c2cccc(Oc3ccccc3)c2)cc1 (mixture of isomers) [TRG 2414-103]

IC50 (MCR-4; [1]): 6.91 µM | IC50 (MCR-1; [2]): 12.2 µM
SMILES: COc1ccc(CNCC2c3ccccc3CN(CCCCC(CN)NCCc3ccccc3)C2c2cccc(Oc3ccccc3)c2)cc1 (stereo not drawn) [TRG 2414-102]

IC50 (MCR-4; [7]): 0.62 µM | IC50 (MCR-1; [7]): 1.47 µM
SMILES: CNC(CN)CCCCN1Cc2ccccc2C(CNCCc2ccc(OC)cc2)C1c1ccc(Cl)cc1Cl (stereo not drawn) [TRG 2407-25]

IC50 (MCR-4; [7]): 7 µM | IC50 (MCR-1; [7]): 10.5 µM
SMILES: NCCN1Cc2ccccc2C(CNCc2ccccc2O)C1c1ccc(Oc2ccccc2)cc1 (mixture of isomers) [TRG 2406-11]

IC50 (MCR-4; [1]): 1.78 µM | IC50 (MCR-1; [2]): 2.96 µM
SMILES: NCC(N)CCCCN1Cc2ccccc2C(CNC2CCCCCC2)C1c1cccc(Oc2ccccc2)c1 (stereo not drawn) [TRG 2414-113]

IC50 (MCR-4; [5]): 0.87 µM | IC50 (MCR-1; [6]): 1.83 µM
SMILES: CCc1ccc(C2C(CN)c3ccccc3CN2CCCC(CN)NCCC2CCCCC2)cc1 (stereo not drawn) [TRG 2415-13]

SMILES: CCNc1ccc(C2C(CN)c3ccccc3CN2CCCC(CN)NCC2CC2CNCCc2ccccc2)cc1 (stereo not drawn) [TRG 2420-28]
IC50 (MCR-4; [5]): 4.08 µM | IC50 (MCR-1; [6]): 0.203 µM

IC50 (MCR-4; [1]): 3.24 µM | IC50 (MCR-1; [2]): 1.92 µM
SMILES: NCC(CCCCN1Cc2ccccc2C(CNC2CCCCCC2)C1c1cc(C(F)(F)F)cc(C(F)(F)F)c1)NCc1ccccc1 (stereo not drawn) [TRG 2414-75]

MC-4 IC50 (MCR-4; [3]): no fit | MC-1 IC50 (MCR-1; [4]): no fit
SMILES: NCC(N)CCCCN1Cc2ccccc2C(CNCCc2cccc(Cl)c2)C1c1ccc(Oc2ccccc2)cc1 (stereo not drawn) [Cmpd 268]

MC-4 IC50 (MCR-4; [7]): no fit | IC50 (MCR-1; [7]): 0.84 µM
SMILES: CCNc1ccc(C2C(CNc3cccc(O)c3)c3ccccc3CN2CCCCC(CN)NC)cc1 (mixture of isomers) [TRG 2407-47]

IC50 (MCR-4; [3]): 37 µM | IC50 (MCR-1; [4]): 13.3 µM
SMILES: CCCOc1ccc(C2C(CNC3CCCCCC3)c3ccccc3CN2CCCCC(CN)NCC(C)c2ccc(CC(C)C)cc2)cc1 (stereo not drawn) [Cmpd 196]
